≈ marks a conversion by molar mass, not a printed value. Marks after values point to notes of the source that are not given here. Non-standard residues stand in square brackets, D forms with d. Residues, ends and D or L forms follow the SMILES beside them.
Tests used:
[1] = system: Bacillus subtilis ATCC 43223; assay: MIC, Bacillus subtilis; assay type: cell-based; conditions: data from MDS Panlabs Pharmacology Services
Experimental: (§1) The antimicrobial activity of the peptides was determined using a broth dilution assay essentially as descried in the guidelines of the National Committee for […] (NCCLS) [National Committee for Clinical Laboratory Standards. Methods for dilution antimicrobial susceptibility tests for bacteria that grow aerobically. Fourth edition. Approved Standard (1997). Document M7-A4. […] The microdilution method has the advantages of requiring less amount of peptide for each assay and the possibility of multiple simultaneous inoculations and was used in most studies. Several of the strains of bacteria tested are further described in Table 3.

[2] = Cytotoxicity to M21 melanoma cells; assay type: cell-based; conditions: human, read-out: M21 (melanoma) LD50
[3] = system: vancomycin-resistant Enterococus faecalis (VRE)(ATCC 51575); assay type: cell-based, Enterococcus faecalis; design: key to VRE (in vitro activity): peptide concentration in μg/ml (broth dilution assay)
Method in brief: (§2)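 MICs come from NCCLS-style (M7-A4) dilution testing, mostly microdilution, with an inoculum near 2.5×10^5 cfu/ml from 4000-fold-diluted overnight cultures. Peptide series were 2-fold steps spanning roughly 400–2 μg/ml, prepared in 9% aqueous sucrose with 5% DMSO.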

[4] = system: Streptococcus pneumoniea erythromycin- and ampicillin-resistant clinical isolate; assay type: cell-based, Streptococcus pneumoniae; conditions: data from MDS Panlabs
Experimental: as §1

E. coli JM109(DE3) = assay type: cell-based, Escherichia coli; conditions: JM109
Method in brief: as §2

murine red blood cells = assay: Red blood cell hemolysis; assay type: cell-based, mouse
Method in brief: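 Washed murine erythrocytes at 5% in saline with 10% FBS were exposed to serial peptide dilutions for 30 min at 37° C. Supernatant absorbance at 560 nm was read, with saline as 0% and 1% Triton X-100 as 100% hemolysis.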

[5] = system: Listeria monocytogenes ATCC19115; assay: MIC, Listeria monocytogenes; assay type: cell-based
Experimental: as §1
(§3) Preparation of peptide solutions. Stock peptide solutions were prepared in 5% DMSO in aq. sucrose (9%). Determination of peptide concentrations was done by quantitative HPLC analysis using known concentrations of internal standards and/or by measuring UV absorption of tryptophane-containing peptide solutions in H2O (λ=280 εTrp: 5690). Serial 2-fold dilutions were made in the above DMSO/aq. sucrose (9%) mixture with concentrations ranging approximately 400-2 μg/ml and aliquots were dispensed in test tubes (100 μl) for the macrodilution test or in microtiter plates (20 μl) for the microdilution assays.
(§4) Inoculum preparation. […]

[6] = system: Salmonella typhimurium ATCC 14028; assay: MIC, Salmonella typhimurium; assay type: cell-based
Experimental: as §1, §3, §4

[7] = system: Bacillus cereus ATCC 11778; assay type: cell-based
Method in brief: as §2

[8] = system: Streptococcus pneumoniae (ATCC 6301); assay type: cell-based
Method in brief: as §2

[9] = system: Staphylococcus aureus ATCC25923; assay: MIC, Staphylococcus aureus ATCC25923; assay type: cell-based; conditions: data from MDS Panlabs Pharmacology Services
Experimental: as §1

[10] = system: S. aureus (MRSA) ATCC 33591; assay type: cell-based, Staphylococcus aureus
Method in brief: as §2

[11] = system: Enterococcus faecalis vancomycin-resistant clinical isolate; assay type: cell-based; conditions: data from MDS Panlabs
Experimental: as §1

## CC(C)C[C@@H]1NC(=O)[C@@H](Cc2c[nH]c3ccccc23)NC(=O)[C@H](CCCNC(=N)N)NC(=O)[C@@H](CCC(N)=O)NC(=O)[C@H](CCCCN)NC(=O)[C@@H](Cc2c[nH]c3ccccc23)NC(=O)[C@H](CC(C)C)NC(=O)[C@@H](Cc2c[nH]c3ccccc23)NC1=O [SEQ ID NO:9, cyclo-[Lys-D-Gln-Arg-D-Trp-Leu-D-Trp-Leu-D-Trp]] (cyclo(K[dQ]R[dW]L[dW]L[dW]))
[1]
  MIC Bacillus subtilis: 3^b μg/ml
[2]
  CC50: > 75 µg/mL
[3]; ATCC 51575
  VRE MIC: 12 µg/mL
[3]; Table 9, media a: AM-3
  VRE (in vitro activity): 12
[4]
  MIC Streptococcus pneumoniea: 10^b μg/ml
E. coli JM109(DE3)
  E. coli MIC: 80 µg/mL
Murine red blood cells
  RBC Hemolysis (HD50): 40
  Red blood cell (mouse) HD50: 45^j μg/ml
[5]
  MIC Listeria monocytogenes: 20 µg/mL (≈ 16.7 µM)
[6]
  MIC Salmonella typhimurium: >70 µg/mL
[7]
  B. cerius MIC: 3 µg/mL
  MIC Bacillus cereus: 2 µg/mL (≈ 1.67 µM)
[8]
  S. pneum. MIC: 4 µg/mL
[9]
  MIC Staphylococcus aureus: 3^b μg/ml
[10]; ATCC 33591
  MRSA MIC: 12 µg/mL
  S. aureus (MRSA) MIC: 8 µg/mL
[10]; Table 9, media a: anti-microbial media-3 (AM-3)
  MRSA (in vitro activity): 12
[11]
  MIC Enterococcus faecalis: 10^b μg/ml

Source: US20050107289A1, “Anti-microbial peptides and compositions” (priority 2001, published 2005)
